# Entries after “also recorded” stand apart in the source; their conditions may differ.
# Experiments:
# SCC4 [1] = assay: Additional cell proliferation assay, SCC4; assay type: cell-based, human; conditions: SCC4, 24 hour treatment
# Description: (§1) Observed reductions in cell proliferation in these additional in vitro studies are as follows: SCC4, 40%; HSC3, 50%; SCC25, 80%; Cal27, 15%; MDA231, 56%; and LnCap, 37%.
# [2] = tested on: OSCC cell lines (HSC3, SCC4, and SCC25); assay: Apoptosis studies, microscopic analysis of OSCC cells; assay type: cell-based, human; conditions: CPZ 30, 60 or 90 μM, 24 hrs
# Method: FIGS. 1E-1, 1E-2, and 1E-3. […] In FIG. 1E-1, magnifications of (from left to right) vehicle control HSC3 cells (a) and HSC3 cells treated with 30 μM CPZ (b), 60 μM CP(c), or 90 μM CPZ(d). In FIG. 1E-2, magnifications of (from left to right) vehicle control SCC4 cells (a) and SCC4 cells treated with 30 μM CPZ (b), 60 μM CPZ (c), 90 μM CPZ (d), while, in FIG. 1E-3, magnifications of (from left to right) vehicle control SCC25 cells (a) and SCC25 cells treated with 30 μM CPZ (b), 60 μM CPZ (c), or 90 μM CPZ (d).
# To determine if reduced cell viability was due to apoptosis, flow-sort analysis and microscopic analysis of cells in three OSCC cell lines (HSC3, SCC4, and SCC25) following treatment were performed. […] (Compare FIGS. 1E-1(b) to (d), FIGS. 1E-2(b)-(d), and FIGS. 1E-3(b) to (d) with FIG. 1E-1(a), FIG. 1E-2(a), and FIG. 1E-3(a), respectively.)
# [3] = tested on: immortalized human bronchiolar epithelial cell line transformed with a TRPV1 insert; conditions: TRPV1-overexpressing cultured cells; cited from earlier work
# SCC4 [4] = assay: Cell cycle analysis by DNA profile FACS, SCC4; assay type: cell-based, human; conditions: 24 hours
# Method: In particular, Table 1 provides additional cell cycle distribution data of OSCC cells (%) treated with 0 μM, 30 μM, 60 μM, or 90 μM CPZ for 24 hours. Data for OSCC cell lines HSC3, SCC4, and SCC25 are also provided in diagrams of FIGS. 1G-1, 1G-2, and 1G-3, respectively.
# OKF6 cells = assay: Cell viability assay of immortalized non-malignant oral keratinocytes; assay type: cell-based; conditions: 24 hours
# Description: FIG. 1D-2. […] Treatment with high concentrations of CAP induces death of normal, non-malignant OKF6 cells. The effect of which was reversed by the pre-treatment with CPZ.
# SCC4 xenografts = assay: OSCC mouse xenograft model, SCC4; assay type: in vivo, athymic nude (nu/nu) mice
# Description: Animals. Six week-old female athymic nude (nu/nu) mice were purchased from HARLAN Laboratories (Indianapolis, Ind.) and used in a laminar air-flow cabinet under pathogen-free conditions. They were provided with a 12-h light/dark schedule at controlled temperature and humidity with food and water ad libitum. Mice were allowed to acclimate for at least one week prior to the start of the experiments. All procedures were approved by the UTHSCSA (University of Texas Health Science Center—San Antonio) Institutional Animal Care and Use Committee.
# OSCC Mouse Xenograft Model. Mice were injected subcutaneously in the right flank with 2×10^6 HSC3, SCC4, or SCC25 cells in 0.1 ml of sterile phosphate buffered saline (each of these cell lines is published in scientific literature). Four weeks post-inoculation, tumors had grown to an average volume of 110 mm^3. Mice were then divided into two experimental groups of five animals each, which received the following treatments as intra-tumoral injections: group A, vehicle control (7% DMSO in sterile saline); group B, CPZ treatment (40 μg). The injections were repeated every other day and for a total of at least 14 days.
# Treatments. CPZ (5 mg) was diluted in 250 μl of 100% DMSO to yield a final concentration of 20 μg/μl of stock solution. Stock solution (100 m) was subsequently diluted in 7% DMSO in sterile saline generating a final concentration of 1 μg/μl. […] Control xenografts were injected intra-tumorally with 40 μl of vehicle control (7% DMSO). Mice were monitored daily for tumor growth, cachexia, and weight loss. Tumor volumes and body weight were recorded every other day. Tumor volumes were calculated by the formula: (4π/3)×(w/2)2×(l/2), where w=width and l=length. Measurements were made using a digital caliper. At the conclusion of the experiments, mice were anaesthetized with isoflurane and cervical dislocation, blood was collected, and the serum was separated and stored at −80° C. until assayed. Biochemical analysis of serum was performed by the Mouse Metabolic Phenotyping Center (Yale School of Medicine, New Haven, Conn.). […]
# [5] = tested on: PC3 prostate cancer cells; assay: Cell viability assay of PC3 cells with and without NAC; assay type: cell-based, human; conditions: PC3 prostate cancer cells, 24 h
# [6] = tested on: prostate cancer cell line LnCap; assay: Additional cell proliferation assay, LnCap; assay type: cell-based; conditions: 24 hour treatment
# Description: as §1
# SCC25 = assay: Additional cell proliferation assay, SCC25; assay type: cell-based, human; conditions: SCC25, 24 hour treatment
# Description: as §1
# HSC3 cells = assay: Cell viability assay of HSC3 cells, dose response curve; assay type: cell-based; conditions: Homo sapiens, HSC-3, HSC3 cells, FIG. 1K
# Description: FIG. 1K. Cell viability assay of HSC3 cells treated with increasing concentrations of curcumin; […]
# [7] = tested on: MDA231 breast cancer cells; assay: Cell viability assay of MDA231 cells with and without NAC; assay type: cell-based, human; conditions: 24 h
structure (smiles),measurement,setting,value
"Oc1cc2c(cc1O)CN(C(=S)NCCc1ccc(Cl)cc1)CCC2 [CPZ, 2-[2-(4-chlorphenyl)ethylamino-thiocarbonyl]-7,8-dihydroxy-2,3,4,5-tetrahydro-1H-2-benzazepine]",reduction in cell proliferation,SCC4 [1],40%
same,apoptosis,[2],undergo apoptosis
same,reversal of CAP-induced apoptosis by CPZ,[3],failed to reverse these effects
same,G0/G1,"SCC4 [4]; SCC4, CPZ 30 μM",70.77%
same,G2/M,"SCC4 [4]; SCC4, CPZ 30 μM",12.14%
same,S,"SCC4 [4]; SCC4, CPZ 30 μM",15.08%
same,SubG1,"SCC4 [4]; SCC4, CPZ 30 μM",2.01%
same,G0/G1,"SCC4 [4]; SCC4, CPZ 60 μM",21.03%
same,G2/M,"SCC4 [4]; SCC4, CPZ 60 μM",24.21%
same,S,"SCC4 [4]; SCC4, CPZ 60 μM",21.04%
same,SubG1,"SCC4 [4]; SCC4, CPZ 60 μM",33.72%
same,G0/G1,"SCC4 [4]; SCC4, CPZ 90 μM",15.61%
same,G2/M,"SCC4 [4]; SCC4, CPZ 90 μM",31.57%
same,S,"SCC4 [4]; SCC4, CPZ 90 μM",24.83%
same,SubG1,"SCC4 [4]; SCC4, CPZ 90 μM",27.99%
same,effect of CPZ on CAP-induced reduction in cell viability,OKF6 cells; CAP 150 μM / CPZ 30 μM,reversed the effects
same,"toxicity on normal, non-malignant cells",OKF6 cells; CPZ 30 μM,non-toxic effect; also recorded: no toxicity was observed
same,tumor growth rate,"SCC4 xenografts; 40 μg CPZ intra-tumoral every other day, two weeks, p<0.05",significant reduction in tumor growth rate
same,growth of vehicle-control-treated tumors versus CPZ treated,"SCC4 xenografts; 40 μg CPZ, day sixteen, p<0.01",two-fold greater
same,difference in tumor growth rates between vehicle control and treated mice,"SCC4 xenografts; 60 μg CPZ, repeat experiments (data not shown)",3 fold
same,cytotoxicity,[5],significant dose dependent cytotoxicity
same,reduction in cell proliferation,[6],37%
same,reduction in cell proliferation,SCC25,80%
same,IC50,HSC3 cells,30 µM
same,cytotoxicity,[7],significant dose dependent cytotoxicity
